Consider 4 molecules from patent publication US20030229004A1, “Modulation of tumor cells using BER inhibitors in combination with a sensitizing agent and DSBR inhibitors” (Pangene Corporation, priority 2002, published 2003).

Structures are written as SMILES. Read-outs that look alike come from different tables or passages of the source.

Series [1] concerns HCT116 cells. The experiment in a line: Clonogenic survival in HCT116 (MMR-deficient) colon carcinoma cells. The class given is cell-based, human. As to the method: (§1) FIG. 2. […] Cells were treated for 48 hours with IUDR alone (closed symbols) or with IUDR and 6 mM Methoxyamine (open symbols). Surviving colonies were counted in triplicate 7-10 days after treatment. Error bars, Standard Error. FIG. 4. […] Cells were treated for 24 hours with FaraA alone or with FaraA and 6 mM Methoxyamine. Surviving colonies were counted in triplicate 7-10 days after treatment. Error bars, Standard Error. The human colon cancer cell line HCT116 lacks MLH1 expression and their MMR positive subline (HCT116/chr 3-6) has hMLH1 reintroduced by chromosome 3 transfer. For clonogenic survival studies in HCT116 and HCT116/3-6 cells, exponentially growing cells were similarly diluted and plated in complete D-MEM medium (+400 μg/ml G418 in HCT116/3-6 cells). […] IUDR-containing medium was then removed in HCT116 cell populations, cultures were washed with PBS and incubated at 37° C. for 7-10 days in tissue culture medium containing 10% defined FBS (+dThd). HCT116 cell populations were treated simultaneously with IUDR and 6 mM Methoxyamine (MX) (Sigma, St Louis, Mo.) for 48 hours; plates were then washed with PBS and surviving colonies were counted after incubation at 37° C. in drug-free medium for 7-10 days.

For series [2], the system named is EM9 cells. Briefly: FaraA cytotoxicity in XRCC1 mutant EM9 CHO cells. The class given is cell-based. As for the experimental part: (§2) FIG. 3. Effect of Methoxyamine (MX) on cytotoxicity induced by FaraA in CHO cells proficient or deficient in Xrcc1 protein. Cells were treated for 24 hours with FaraA alone or with FaraA and 6 mM Methoxyamine. Surviving colonies were counted in triplicate 7-10 days after treatment and the experiment was repeated three times. Error bars, Standard Error.
(§3) AA8 and EM9 cells were obtained from the American Tissue Culture Collection (Manassas, Va.). H9T3 cells were a gift of Dr. L. H. Thompson (Lawrence Livermore National Laboratory, Livermore, Calif.). The parental CHO line clone AA8 was isolated as being heterozygous at the aprt locus; the mutant EM9 clone was isolated from AA8 cells following mutagenesis with EMS and carry a frameshift mutation in the XRCC1 gene resulting in a truncated polypeptide lacking two thirds of the normal sequence. […] H9T3-7-1 cells (referred in the text as H9T3) were derived from EM9 following transfection with a cosmid containing XRCC1 cDNA which corrects the DNA repair defect of EM9.
(§4) We tested whether MX, a small molecule known to be BER inhibitor, could sensitize CHO cells to FaraA cytotoxicity.

The subject of series [3] is A2780/cp70 cells. Briefly: Clonogenic survival in A2780/cp70 (MMR-deficient) ovary carcinoma cells. The class given is cell-based, human. As to the method: (§5) FIG. 1. Effect of Methoxyamine (MX) on cytotoxicity induced by IUDR in human A2780/cp70 (MMR-deficient) and […]) ovary carcinoma cell lines. Cells were treated for 48 hours with IUDR alone or with IUDR and 6 mM Methoxyamine. Surviving colonies were counted in triplicate 7-10 days after treatment. Error bars, Standard Error. FIG. 5. Effect of Methoxyamine (MX) on cytotoxicity induced by FaraA in human A2780/cp70 (MMR-deficient) and […]) ovary carcinoma cell lines. Cells were treated for 48 hours with FaraA alone or with FaraA and 6 mM Methoxyamine. Surviving colonies were counted in triplicate 7-10 days after treatment. Error bars, Standard Error. For clonogenic survival studies in A2780/cp70 and […], exponentially growing cells were similarly diluted and plated in complete RPMI 1640 medium (+400 μg/ml Hygromycin in […]). […] IUDR-containing medium was then removed in cell populations, cultures were washed with PBS and incubated at 37° C. for 7-10 days in tissue culture medium containing 10% defined FBS (+dThd). Cell populations were treated simultaneously with IUDR and 6 mM Methoxyamine (MX) (Sigma, St Louis, Mo.) for 48 hours; plates were then washed with PBS and surviving colonies were counted after incubation at 37° C. in drug-free medium for 7-10 days.

Series [4] relates to HCT116/3-6 cells. The experiment in a line: Clonogenic survival in HCT116/3-6 (MMR-proficient) colon carcinoma cells. The class given is cell-based, human. Conditions: for IC50: Homo sapiens, HCT-116, 24 hours. As to the method:
as §1

Series [5] concerns human colon and brain cancer xenograft models. Conditions: daily p.o. dosing of IPDR for 6 or 14 days; human colon and brain cancer xenografts; cited from earlier work.
The conditions of series [6]: daily p.o. dosing of IPDR for 6 or 14 days; nude mice; cited from earlier work.
Series [7] in a line: Plasma levels of IPDR in athymic mice. The class given is in vivo. Conditions: 250 mg/kg ip; samples 0-350 min; athymic mice with U87 MG tumors. As for the experimental part: Athymic mice are treated with MX-IPDR or IPDR. Tumor fragment of about 2×2×2 mm derived from Human U87 MG Glioma Cells are implanted s.c. into the axilliary region of the mice. The mice are then treated ip with MX-IPDR at 250 mg/kg or IPDR at 250 mg/kg and samples taken at 0, 2, 5, 15, 45, 75, 120, 150, 210 and 350 min after treatment. The IPDR plasma levels are determined as previously reported by Kinsella et al. {Kinsella, 2000 #121}.

Series [8] relates to HCT116 cells. The experiment in a line: Clonogenic survival of HCT116 with poly IUDR and IUDR (Example 8). It is filed as cell-based, human. Conditions: 1, 3, 10 μM for 48 hours. As for the experimental part: Human colon cells (HCT 116) are treated with poly IUDR, an oligonucleotide comprised of IUDR, and IUDR. For clonogenic survival studies in HCT116, exponentially growing cells are similarly diluted and plated in complete D-MEM medium (+400 μg/ml G418 in HCT116/3-6 cells). Poly IUDR and IUDR treatment (1, 3, 10 μM) in HCT116 is for 48 hours in D-MEM (-G418) medium containing 10% dialyzed FBS, and the drug-containing medium is replaced after the initial 24 hours. Compound-containing medium is then removed from the HCT116 cell cultures, the cultures are washed with PBS, and incubated at 37° C. for 7-10 days in tissue culture medium containing 10% defined FBS (+dThd). Surviving colonies are counted after incubation at 37° C. in drug-free medium for 7-10 days.

For series [9], the system named is A2780/cp70+chr3 cells. The experiment in a line: Clonogenic survival in A2780/cp70+chr3 (MMR-proficient) ovary carcinoma cells. The class given is cell-based, human. As to the method: as §5
For series [10], the system named is AA8 cells. The experiment in a line: FaraA cytotoxicity in wild type AA8 CHO cells. The note with it: 6 mM MX. The class given is cell-based. As to the method:
as §2, §3, §4

The subject of series [11] is wild type and Polβ-complemented mouse fibroblasts. The note with it: cited from earlier work.
Series [12] concerns Human MDA-MB-231 breast cancer cells. Briefly: MDA-MB-231 breast cancer xenografts in athymic mice, with Doxorubicin. The note with it: MDA-MB-231 xenograft; i.p. days 1-5, 3 cycles; all mice also Doxorubicin 1.5 mg/kg day 4; measured at day 49. It is filed as in vivo. As for the experimental part:
FIG. 6. Effect of Rad51 antisense on tumor growth delay induced by Doxorubicin on Human MDA-MB-231 Breast cancer cells grown as xenografts in Athymic Mice. The mice were treated i.p. with Rad51 antisense at 5 mg/kg on days 1 through 5, MX at 2 mg/kg on days 1 through 5, and with Doxorubicin at 1.5 mg/kg on day 4. The cycle was repeated three times with a two-day rest period between cycles.
(§6) Athymic mice are treated with Rad51 antisense alone, MX alone, and Rad51 antisense in combination with MX. All mice are also treated with Doxorubicin. Tumor fragment of about 2×2×2 mm derived from Human MDA-MB-231 breast cancer cells Athymic mice are implanted s.c. into the axilliary region of the mice. The mice are treated i.p. with Rad51 antisense at 5 mg/kg on days 1 through 5, MX at 2 mg/kg on days 1 through 5, and Doxorubicin at 1.5 mg/kg on day 4. The cycle is repeated three times with a two-day rest period between cycles. The animals are euthanatized 49 days after the beginning of the experiment, and the tumor size is measured by calipers.

Series [13] relates to H9T3 cells. The experiment in a line: FaraA cytotoxicity in XRCC1 reconstituted H9T3 CHO cells. Conditions: 6 mM MX. It is filed as cell-based. As to the method: as §2, §3, §4
For series [14], the system named is Human U87 MG glioma cells. Briefly: U87 MG glioma xenografts in athymic mice, with IPDR. The class given is in vivo. The note with it: U87 MG xenograft; i.p. days 1-5, 3 cycles; all mice also IPDR 250 mg/kg day 4; measured at day 49. As for the experimental part:
as §6, with “IPDR.” for “Doxorubicin.”, “U87 MG glioma” for “MDA-MB-231 breast cancer”, “cells” for “cells Athymic mice”, “IPDR” for “Doxorubicin”, “250” for “1.5”

The mark [15] stands for this setting: IUDR 48 hours, colonies counted after 7-10 days, read-out: IC50 for IUDR alone.

The term IC50 denotes the midpoint of a concentration-inhibition curve. In the case of `Nc1nc(F)nc2c1ncn2[C@@H]1O[C@H](CO)[C@@H](O)[C@@H]1O` [FaraA, Fludarabine], the IC50 in series [1] (Homo sapiens, HCT-116, FaraA + 6 mM MX, 24 hours, read-out: IC50 for FaraA with 6 mM MX) was 3 µM; in series [1] (Homo sapiens, HCT-116, FaraA alone, 24 hours, read-out: IC50 for FaraA treatment), 9 µM; in series [2] (Cricetulus griseus, CHO, XRCC1 mutant EM9 cells, FaraA alone, 24 hours), 7.5 µM; in series [3] (Homo sapiens, FaraA + 6 mM MX, 48 hours, read-out: IC50 for FaraA with 6 mM MX), 4 µM; in series [3] (Homo sapiens, FaraA alone, 48 hours, read-out: IC50 for FaraA alone), 11 µM; in [4] (HCT116/3-6 cells, FaraA + 6 mM MX, read-out: IC50 for FaraA in the presence of 6 mM MX) it was 3 µM. The IC50 in series [4] (HCT116/3-6 cells, FaraA alone, read-out: IC50 for FaraA) stood at 5 µM.
In the case of `O=c1ncc(I)cn1[C@H]1C[C@H](O)[C@@H](CO)O1` [IPDR, 5-iodo-2-pyrimidinone-2′-deoxyribose], the Tumor radiosensitization entry in [5] is reported as “significant radiosensitization”. The Systemic toxicity entry in [6] is “no significant systemic toxicity”. In series [7], the “Plasma IPDR levels required to act as a radiosensitizer” value is on record as “acceptable level”.
`O=c1[nH]c(=O)n([C@H]2C[C@H](O)[C@@H](CO)O2)cc1I` [IUDR, IodoUridineDeoxyRibose]: the IC50 is 4.5 µM in series [1] (setting [15]); 0.5 µM in series [1] (IUDR + MX for 48 hours (method 6 mM MX, result sentence 12 mM MX), read-out: IC50 for IUDR with MX treatment); 8 µM in series [3] (setting [15]); 1 µM in series [3] (IUDR + 6 mM MX for 48 hours, read-out: IC50 for IUDR with MX treatment). Besides, the “Cytotoxicity in clonogenic survival” value in series [8] is “greatly sensitized”. Moreover, the “Response to IUDR alone and to MX+IUDR compared with A2780/cp70” value in [9] (MMR positive subline A2780/cp70 chr3) is recorded as “qualitatively similar”. In series [4] (MMR positive subline HCT116/chr3-6), the “Response to IUDR alone and to MX+IUDR compared with HCT116” value is on record as “qualitatively similar”.
As for `CON` [MX, Methoxyamine], the “Sensitization to IUDR-induced cytotoxicity by MX” value is recorded as “greatly sensitized” in series [1] (12 mM MX as printed); “greatly sensitized” in series [9] (cp70/ch3 cells, 6 mM MX, 48 hours); “greatly sensitized” in series [3] (6 mM MX, 48 hours); “greatly sensitized” in [4] (HCT116/3-6 cells, 12 mM MX as printed). Also, the “Sensitization to FaraA by MX” value in series [10] is listed as “significantly sensitized”; in series [2] (EM9 cells, 6 mM MX), “further sensitized”; in series [13] it was “significantly sensitized”. Moreover, the “Sensitization to the cytotoxicity of Ganciclovir” value in series [11] is “sensitized”. The “Tumor size and tumor cell killing” value in series [12] is “Reduction in tumor size and tumor cell killing”; in series [14], “Reduction in tumor size and tumor cell killing”.
